In ChEMBL document CHEMBL1144279, “Biarylcarboxybenzamide derivatives as potent vanilloid receptor (VR1) antagonistic ligands” (Bioorg Med Chem Lett, 2005):

Assays:
[1] = target: T1, Transient receptor potential cation channel subfamily V member 1 (Rattus norvegicus, UniProt O35433); experiment: In vitro antagonistic activity on VR1 receptor in [Ca2+] influx assay in rat dorsal root ganglion; type: functional, tissue-based
[2] = target: T1, Transient receptor potential cation channel subfamily V member 1; experiment: In vitro agonistic activity on VR1 receptor in [Ca2+] influx assay in rat dorsal root ganglion (NE: not effective at 30 uM); type: functional, tissue-based

T1 sequence (O35433 whole entry): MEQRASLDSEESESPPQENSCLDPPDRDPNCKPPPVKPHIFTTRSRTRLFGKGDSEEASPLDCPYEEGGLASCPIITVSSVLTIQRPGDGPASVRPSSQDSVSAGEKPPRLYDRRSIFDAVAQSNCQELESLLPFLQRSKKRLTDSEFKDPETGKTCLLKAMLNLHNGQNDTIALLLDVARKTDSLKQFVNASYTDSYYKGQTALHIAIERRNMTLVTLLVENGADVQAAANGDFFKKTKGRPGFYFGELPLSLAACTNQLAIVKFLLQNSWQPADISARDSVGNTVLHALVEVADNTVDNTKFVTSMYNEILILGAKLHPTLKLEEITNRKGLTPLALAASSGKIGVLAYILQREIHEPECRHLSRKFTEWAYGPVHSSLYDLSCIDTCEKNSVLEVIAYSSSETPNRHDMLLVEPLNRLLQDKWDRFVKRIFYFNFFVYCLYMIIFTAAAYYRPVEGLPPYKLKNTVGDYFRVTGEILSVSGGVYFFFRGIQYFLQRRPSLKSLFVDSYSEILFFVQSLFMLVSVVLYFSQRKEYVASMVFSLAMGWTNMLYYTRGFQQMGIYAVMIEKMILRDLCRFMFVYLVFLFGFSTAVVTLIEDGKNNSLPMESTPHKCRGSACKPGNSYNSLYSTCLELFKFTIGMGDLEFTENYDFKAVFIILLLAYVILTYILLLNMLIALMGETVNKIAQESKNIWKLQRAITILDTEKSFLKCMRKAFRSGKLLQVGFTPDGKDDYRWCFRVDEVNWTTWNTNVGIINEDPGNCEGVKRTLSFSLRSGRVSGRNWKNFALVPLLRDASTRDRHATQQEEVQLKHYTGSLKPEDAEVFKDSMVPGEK

| IC50 [1] | IC50 [2] | Structure (SMILES) |
| --- | --- | --- |
| 31 nM | Not Active | Cc1cccnc1-c1ccc(C(=O)Nc2ccc(C(C)(C)C)cc2)cc1 |
| 140 nM | Not Active | CC(C)(C)c1ccc(NC(=O)c2ccc(-c3ncccc3C(F)(F)F)cc2)cc1 |
| 60 nM | Not Active | CC(C)(C)c1ccc(NC(=O)c2ccc(-c3ncccn3)cc2)cc1 |
| 2000 nM | Not Active | Cc1ccc(NC(=O)c2ccc(-c3ccccn3)cc2)cc1C |
| 1000 nM | Not Active | CC(C)(C)c1ccc(NC(=O)c2ccc(-c3cnccn3)cc2)cc1 |
| > 10000 nM | Not Active | CN(C(=O)c1ccc(-c2ccccn2)cc1)c1ccc(C(C)(C)C)cc1 |
| 60 nM | Not Active | CC(C)(C)c1ccc(NC(=O)c2ccc(-c3ncccc3[N+](=O)[O-])cc2)cc1 |
| 7900 nM | Not Active | O=C(Nc1ccc(C(F)(F)F)cc1)c1ccc(-c2ccccn2)cc1 |
| 31 nM | Not Active | CC(C)(C)c1ccc(NC(=O)c2ccc(-c3ccccn3)cc2)cc1 |
| 150 nM | Not Active | CC(C)(C)c1ccc(NC(=O)N2CCN(c3ccccn3)CC2)cc1 |
| > 10000 nM | Not Active | O=C(Nc1ccccc1)c1ccc(-c2ccccn2)cc1 |
| 55 nM | Not Active | CC(C)(C)c1ccc(NC(=O)c2ccc(-c3ncccc3Cl)cc2)cc1 |
| 2300 nM | Not Active | Cc1ccc(NC(=O)c2ccc(-c3ccccn3)cc2)cc1 |
| 38 nM | Not Active | CC(C)c1ccc(NC(=O)c2ccc(-c3ccccn3)cc2)cc1 |
| 3600 nM | Not Active | CC(C)(C)c1ccc(NC(=O)c2ccc(-c3ccccc3)cc2)cc1 |
| 280 nM | Not Active | CC(C)(C)c1ccc(NC(=O)c2ccc(-c3ccncc3)cc2)cc1 |
| 1300 nM | Not Active | CC(C)(C)c1ccc(NC(=O)c2ccc(-c3cccnc3)cc2)cc1 |
| > 10000 nM | Not Active | CC(C)(C)c1ccc(NC(=O)c2ccc(-c3cncnc3)cc2)cc1 |
